Experimental data taken from patent publication US20250018049A1, “COMPOUNDS FOR DEGRADING CYCLIN-DEPENDENT KINASE 2 VIA UBIQUITIN PROTEOSOME PATHWAY” (NIKANG THERAPEUTICS, INC., priority 2020, published 2025).

What was measured:
Assay type in all cases: cell-based
CDK2 [1] = target: T1, CDK2 (Homo sapiens, UniProt P24941); assay: Phospho-Rb HTRF measurement in OVCAR3 cells (inhibition of CDK2); set-up: High-Throughput Measurement of Cellular Endogenous CDK2; endogenous in cells; host or cells: OVCAR3; settings: pRB(S807/811) assay, 24 h compound treatment
CDK2 [2] = target: T1, CDK2; assay: CDK2 HTRF assay (cellular endogenous CDK2 level); set-up: High-Throughput Measurement of Cellular Endogenous CDK2; endogenous in cells; host or cells: OVCAR3; settings: OVCAR-3; OVCAR3 cells, 24 hours, 0.3 to 10,000 nM; read-out: max degradation of CDK2
Description: Effects of compounds on cellular CDK2 level can be monitored by a high-throughput HTRF assay or traditional Western Blot assay.
To determine half maximal degradation concentration (DC50) values of compounds, cellular CDK2 level was measured in 96-well format using HTRF total CDK2 cellular kit (Cat #64CDK2TPEG) from Cisbio.
On Day 1, OVCAR3 cells were seeded into 96-well tissue-culture treated plates at 20,000 cells/well in 200 μL and incubated overnight at 37° C. in CO2 atmosphere. On Day 2 cells were treated with compounds at concentration ranging from 0.3 to 10,000 nM using HP D300 digital dispenser. 24 hours after compound treatment, cell culture media was removed by flicking the plate and tapping the plate against clean paper towel. Immediately 30 μL 1× lysis buffer was supplemented from the kit and the plate was incubated at room temperature on shaker for 30 min. After homogenization by pipetting up and down, 8 μL cell lysate from 96-well cell culture plate was transferred to 384-well small volume white detection plate. 2 μL premixed detection solution was added and the plate was covered with sealer. To prepare the detection solution, d2 conjugated-CDK2 antibody and Eu-cryptate conjugated CDK2 antibody were diluted into detection buffer following manufacturer's instruction. Detection plates were incubated overnight at room temperature and read on ClarioStar (BMG Labtech) in TR-FRET mode (665 nM and 620 nM). The TR-FRET ratio (665 nM/620 nM) was plotted against the compound concentration and normalized to DMSO controls. Half maximal degradation concentration (DC50) values were calculated with a four-parameter logistic fit using GraphPad Prism (version 8; La Jolla, CA). FIG. 1 provides a dose-response curve of Compound 1 in Compound Table I in cellular CDK2 HTRF assay. IC50 in FIG. 1 is the same as DC50. Compounds 1, 13, 16, 22, 23, 28, 34, 35, 36, 37, 38, 39, 42, 48, 50, 51, 53, 54, 55, 56, 57, 58, 59, 60, 61, 62, 63, 65, 66, 68, 69, 70 were tested and max degradation of CDK2 observed was from about 35% to about 90%.

CDK2 [3] = target: T1, CDK2; assay: NanoBRET CDK2 engagement assay; set-up: expressed in transfected cells; settings: OVCAR3 cells with stable CDK2-Luciferase vector, 24 hours treatment
Procedure, shortened: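 OVCAR3 cells stably expressing CDK2-luciferase, in Opti-MEM with 1% FBS, treated 24 h at 37° C with compound from 3 μM in ½-log steps to 0.3 nM; NanoBRET tracer present for final 2 h. Donor/acceptor emission read; engagement normalized to DMSO as 100% signal, IC50 by curve fit.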

| Compound | IC50 (CDK2 [1]) | Dmax (CDK2 [2]) | IC50 (CDK2 [3]) |
| --- | --- | --- | --- |
| Cn1c(=O)n(C2CCC(=O)NC2=O)c2cccc(C3CCN(C4CCN(c5cccc(S(=O)(=O)N6CCC(Nc7ncc8ccc(=O)n(C9CCCC9)c8n7)CC6)c5)CC4)CC3)c21 (stereo not drawn) [Compound 39, 3-(4-(1′-(3-((4-((8-cyclopentyl-7-oxo-7,8-dihydro-pyrido[2,3-d]pyrimidin-2-yl)amino)piperidin-1-yl)sulfonyl)phenyl)-[1,4′-bipiperidin]-4-yl)-3-methyl-2-oxo-2,3-dihydro-1H-benzo[d]imidazol-1-yl)piperidine-2,6-dione] | 490 nM | 35 to 90% | 94 nM |
| O=C1CCC(N2C(=O)c3cc(F)c(N4CCN(Cc5cccc(S(=O)(=O)N6CC[C@H](Nc7ncc8ccc(=O)n(C9CCCC9)c8n7)[C@H](F)C6)c5)CC4)cc3C2=O)C(=O)N1 (stereo partly drawn) [Compound 63, 5-(4-(3-(((3R,4S)-4-((8-cyclopentyl-7-oxo-7,8-dihydropyrido[2,3-d]pyrimidin-2-yl)amino)-3-fluoropiperidin-1-yl)sulfonyl)benzyl)piperazin-1-yl)-2-(2,6-dioxopiperidin-3-yl)-6-fluoroiso-indoline-1,3-dione] | 180 nM | 35 to 90% | 265 nM |
| CN(CCCN1CCC(c2cccc3c2n(C)c(=O)n3C2CCC(=O)NC2=O)CC1)S(=O)(=O)N1CCC(Nc2ncc3ccc(=O)n(C4CCCC4)c3n2)CC1 (stereo not drawn) [Compound 23, 4-((8-cyclopentyl-7-oxo-7,8-dihydropyrido[2,3-d]pyrimidin-2-yl)amino)-N-(3-(4-(1-(2,6-dioxo-piperidin-3-yl)-3-methyl-2-oxo-2,3-dihydro-1H-benzo[d]imidazol-4-yl)piperidin-1-yl)propyl)-N-methylpiperidine-1-sulfonamide] | 13.6 nM | 35 to 90% | < 1 nM |
| O=C1CCC(N2Cc3cc(N4CCN(C5CN(c6cccc(S(=O)(=O)N7CCC(Nc8ncc9ccc(=O)n(C%10CCCC%10)c9n8)CC7)c6)C5)CC4)ccc3C2=O)C(=O)N1 (stereo not drawn) [Compound 70, 3-(5-(4-(1-(3-((4-((8-cyclopentyl-7-oxo-7,8-dihydropyrido[2,3-d]pyrimidin-2-yl)amino)-piperidin-1-yl)sulfonyl)phenyl)-azetidin-3-yl)piperazin-1-yl)-1-oxoisoindolin-2-yl)piperidine-2,6-dione] | 25.8 nM | 35 to 90% | 40.2 nM |
| O=C1CCC(N2Cc3cc(N4CC5(CN(Cc6cccc(S(=O)(=O)N7CCC(Nc8ncc9ccc(=O)n(C%10CC%11CC%11C%10)c9n8)CC7)c6)C5)C4)ccc3C2=O)C(=O)N1 (stereo not drawn) [Compound 61, 3-(5-(6-(3-((4-((8-(bicyclo[3.1.0]hexan-3-yl)-7-oxo-7,8-dihydropyrido[2,3-d]pyrimidin-2-yl)amino)piperidin-1-yl)sulfonyl)benzyl)-2,6-diazaspiro[3.3]heptan-2-yl)-1-oxoisoindolin-2-yl)piperidine-2,6-dione] | 70.7 nM | 35 to 90% | 327 nM |
| O=C1CCC(N2Cc3cc(CNCCOc4cccc(S(=O)(=O)N5CCC(Nc6ncc7ccc(=O)n(C8CCCC8)c7n6)CC5)c4)ccc3C2=O)C(=O)N1 (stereo not drawn) [Compound 68, 3-(5-(((2-(3-((4-((8-cyclopentyl-7-oxo-7,8-dihydropyrido[2,3-d]pyrimidin-2-yl)amino)-piperidin-1-yl)sulfonyl)phenoxy)ethyl)amino)-methyl)-1-oxoisoindolin-2-yl)piperidine-2,6-dione] | 29.4 nM | 35 to 90% | 197 nM |
| Cn1c(=O)n(C2CCC(=O)NC2=O)c2cccc(CCCOC3CCN(S(=O)(=O)N4CCC(Nc5ncc6ccc(=O)n(C7CCCC7)c6n5)CC4)CC3)c21 (stereo not drawn) [Compound 16, 3-(4-(3-((1-((4-((8-cyclopentyl-7-oxo-7,8-dihydropyrido[2,3-d]pyrimidin-2-yl)amino)-piperidin-1-yl)sulfonyl)piperidin-4-yl)oxy)propyl)-3-methyl-2-oxo-2,3-dihydro-1H-benzo[d]-imidazol-1-yl)piperidine-2,6-dione] | 495 nM | 35 to 90% | 320 nM |
| CC1(O)CCCC1n1c(=O)ccc2cnc(NC3CCN(S(=O)(=O)c4cccc(CN5CCN(c6ccc7c(c6)CN(C6CCC(=O)NC6=O)C7=O)CC5)c4)CC3)nc21 (stereo not drawn) [Compound 55, 3-(5-(4-(3-((4-((8-(2-hydroxy-2-methyl-cyclopentyl)-7-oxo-7,8-dihydropyrido[2,3-d]-pyrimidin-2-yl)amino)piperidin-1-yl)sulfonyl)-benzyl)piperazin-1-yl)-1-oxoisoindolin-2-yl)-piperidine-2,6-dione] | 70 nM | 35 to 90% | 736 nM |
| O=C1CCC(N2Cc3cc(N4CC5CCC4CN5Cc4cccc(S(=O)(=O)N5CCC(Nc6ncc7ccc(=O)n(C8CCCC8)c7n6)CC5)c4)ccc3C2=O)C(=O)N1 (stereo not drawn) [Compound 51, 3-(5-(5-(3-((4-((8-cyclopentyl-7-oxo-7,8-dihydropyrido[2,3-d]pyrimidin-2-yl)amino)-piperidin-1-yl)sulfonyl)benzyl)-2,5-diazabicyclo[2.2.2]octan-2-yl)-1-oxoisoindolin-2-yl)piperidine-2,6-dione] | 154 nM | 35 to 90% | 198 nM |
| O=C1CCC(N2Cc3cc(N4CC5CC4CN5Cc4cccc(S(=O)(=O)N5CCC(Nc6ncc7ccc(=O)n(C8CCCC8)c7n6)CC5)c4)ccc3C2=O)C(=O)N1 (stereo not drawn) [Compound 53, 3-(5-(5-(3-((4-((8-cyclopentyl-7-oxo-7,8-dihydropyrido[2,3-d]pyrimidin-2-yl)amino)-piperidin-1-yl)sulfonyl)benzyl)-2,5-diazabicyclo-[2.2.1]heptan-2-yl)-1-oxoisoindolin-2-yl)-piperidine-2,6-dione] | 259 nM | 35 to 90% | 152 nM |
| O=C1CCC(N2Cc3cc(CN4CCC(Oc5cccc(S(=O)(=O)N6CCC(Nc7ncc8ccc(=O)n(C9CCCC9)c8n7)CC6)c5)CC4)ccc3C2=O)C(=O)N1 (stereo not drawn) [Compound 66, 3-(5-((4-(3-((4-((8-cyclopentyl-7-oxo-7,8-dihydropyrido[2,3-d]pyrimidin-2-yl)amino)-piperidin-1-yl)sulfonyl)phenoxy)-piperidin-1-yl)-methyl)-1-oxoisoindolin-2-yl)piperidine-2,6-dione] | 107 nM | 35 to 90% | 46 nM |
| O=C1CCC(N2Cc3cc(N4CCN(Cc5cccc(S(=O)(=O)N6CCC(Nc7ncc8cc(C(F)F)c(=O)n(C9CCCC9)c8n7)CC6)c5)CC4)ccc3C2=O)C(=O)N1 (stereo not drawn) [Compound 56, 3-(5-(4-(3-((4-((8-cyclopentyl-6-(difluoromethyl)-7-oxo-7,8-dihydropyrido[2,3-d]pyrimidin-2-yl)amino)piperidin-1-yl)sulfonyl)benzyl)piperazin-1-yl)-1-oxoisoindolin-2-yl)piperidine-2,6-dione] | 67 nM | 35 to 90% | 241 nM |
| O=C1CCC(N2Cc3cc(N4CC5CCC(C4)N5Cc4cccc(S(=O)(=O)N5CCC(Nc6ncc7ccc(=O)n(C8CCCC8)c7n6)CC5)c4)ccc3C2=O)C(=O)N1 (stereo not drawn) [Compound 54, 3-(5-(8-(3-((4-((8-cyclopentyl-7-oxo-7,8-dihydro-pyrido[2,3-d]pyrimidin-2-yl)amino)piperidin-1-yl)sulfonyl)benzyl)-3,8-diazabicyclo[3.2.1]octan-3-yl)-1-oxoisoindolin-2-yl)piperidine-2,6-dione] | 72.5 nM | 35 to 90% | 214 nM |
| O=C1CCC(N2Cc3cc(N4CCC5(CCN(Cc6cccc(S(=O)(=O)N7CCC(Nc8ncc9ccc(=O)n(C%10CCCC%10)c9n8)CC7)c6)CC5)CC4)ccc3C2=O)C(=O)N1 (stereo not drawn) [Compound 59, 3-(5-(9-(3-((4-((8-cyclopentyl-7-oxo-7,8-dihydro-pyrido[2,3-d]pyrimidin-2-yl)amino)piperidin-1-yl)sulfonyl)benzyl)-3,9-diazaspiro[5.5]undecan-3-yl)-1-oxoisoindolin-2-yl)piperidine-2,6-dione] | 48.2 nM | 35 to 90% | 180 nM |
